Each compound was assayed against 5-hydroxytryptamine receptors of the sub-type 1 (5-HT1 receptor) (assay: Affinity to the 5-HT1 receptor: receptor binding studies using calf hippocampus membrane preparations, 3H-serotonin as radioactively labelled ligand). Conditions: calf hippocampus membranes; 3H-serotonin radioligand.
Procedure: In Table 1, as an example, the high affinity of the compounds according to the invention to 5-hydroxytryptamine receptors of the sub-type 1 is shown. The values specified are data which were determined from receptor binding studies using calf hippocampus membrane preparations. 3 H-serotonin was used for this purpose as radioactively labelled ligand.

Structure (SMILES) | Ki [nM]
CCCN(CCC)C1CCc2cccc(OC)c2C1 (stereo not shown) [R^1 =OCH3, R^2 =R^3 =nC3 H7, reference compound] | 3
CCCN(CCC)C1CCc2cccc(CCNC(=O)OCc3ccccc3)c2C1 (stereo not shown) [Example 42, 2-Dipropylamino-8-(2-benzyloxycarbonylamido-ethyl)-2,3,4-tetrahydronaphthalene] | 5
CCCN(CCC)C1CCc2cccc(OCCNC(=O)OCC)c2C1 (stereo not shown) [Example 28, 2-Dipropylamino-8-(2-ethoxycarbonylamido-ethoxy)1,2,3,4-tetrahydronaphthalene] | 4
CCCN(CCC)C1CCc2cccc(Cl)c2C1 (stereo not shown) [Example 1, 2-Dipropylamino8-chloro-1,2,3,4-tetrahydronaphthalene] | 20
CCCN(CCC)C1CCc2cccc(OCCNC=O)c2C1 (stereo not shown) [Example 33, 2-Dipropylamino-8-(2-formylamido-ethoxy)-1,2,3,4-tetrahydronaphthalene] | 19
CCCN(CCC)C1CCc2cccc(C(N)=O)c2C1 (stereo not shown) [Example 6, 2-Dipropylamino-8-carbamoyl-1,2,3,4-tetrahydronaphthalene] | 7
CCCN(CCC)C1CCc2cccc(O)c2C1 (stereo not shown) [R^1 =OH, R^2 =R^3 =nC3 H7, reference compound] | 2
CCCN(CCC)C1CCc2cccc(OCCNC(N)=O)c2C1 (stereo not shown) [Example 30, 2-Dipropylamino-8-ureidoethoxy-1,2,3,4-tetrahydronaphthalene] | 30
CCCCS(=O)(=O)NCCOc1cccc2c1CC(N(CCC)CCC)CC2 (stereo not shown) [Example 26, 2-Dipropylamino-8-(2-butanesulphonamidoethoxy)-1,2,3,4-tetrahydronaphthalene] | 17
CCCN(CCC)C1CCc2cccc(Br)c2C1 (stereo not shown) [Example 2, 2-Dipropylamino-8-bromo-1,2,3,4-tetrahydronaphthalene] | 13
